Measured values taken from PubChem BioAssay AID248 (DTP/NCI, 2004).
“And” between values parts separate entries of the source, which are not always exact repeats. Equal entries are not always repeated. Toxic doses and inconclusive results are not listed.

Test system: L1210 leukemia ip in BDF1 mice, survival T/C
Assay: NCI In Vivo Anticancer Drug Screen. Data for tumor model L1210 Leukemia (intraperitoneal) in B6D2F1 (BDF1) mice
Conditions: higher = longer survival
Outline: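 Antitumor effect is assessed in tumor-bearing animals. Survival in the compound arm is compared with a vehicle-dosed control arm and expressed as their quotient.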

[1] = endpoint: mean survival time, dose: 100.0 mg/kg/injection, schedule: Q04DX003 (ip), vehicle: saline
[2] = endpoint: mean survival time, dose: 200.0 mg/kg/injection, schedule: Q04DX003 (ip), vehicle: saline
[3] = endpoint: mean survival time, dose: 400.0 mg/kg/injection, schedule: Q04DX003 (ip), vehicle: saline
[4] = endpoint: mean survival time, dose: 100.0 mg/kg/injection, schedule: Q01DX009 (ip), vehicle: Klucel (hydroxypropylcellulose) (HPC)
[5] = endpoint: mean survival time, dose: 200.0 mg/kg/injection, schedule: Q01DX009 (ip), vehicle: Klucel (hydroxypropylcellulose) (HPC)

SMILES: O=C(O)C(CSCc1ccccc1)NSc1ccccc1[N+](=O)[O-] (configuration not stated)
- T/C (endpoint: mean survival time, dose: 100.0 mg/kg/injection, schedule: Q01DX001 (ip), vehicle: Klucel (hydroxypropylcellulose) (HPC)): 105 % of control
- T/C [1]: 97 % of control
- T/C (endpoint: mean survival time, dose: 200.0 mg/kg/injection, schedule: Q01DX001 (ip), vehicle: Klucel (hydroxypropylcellulose) (HPC)): 105 % of control
- T/C [2]: 95 % of control
- T/C (endpoint: mean survival time, dose: 400.0 mg/kg/injection, schedule: Q01DX001 (ip), vehicle: Klucel (hydroxypropylcellulose) (HPC)): 101 % of control
- T/C [3]: 106 % of control

SMILES: O=C(CC(CC(=O)c1ccccc1)c1ccncc1)c1ccccc1
- T/C (endpoint: mean survival time, dose: 50.0 mg/kg/injection, schedule: Q01DX001 (ip), vehicle: carboxymethylcellulose (CMC)): 95 % of control
- T/C (endpoint: mean survival time, dose: 200.0 mg/kg/injection, schedule: Q01DX001 (ip), vehicle: carboxymethylcellulose (CMC)): 90 % of control
- T/C (endpoint: mean survival time, dose: 400.0 mg/kg/injection, schedule: Q01DX001 (ip), vehicle: carboxymethylcellulose (CMC)): 86 % of control

SMILES: O=C(CNCc1ccccc1)Oc1c(Cl)c(Cl)c(Cl)c(Cl)c1Cl
- T/C (endpoint: mean survival time, dose: 100.0 mg/kg/injection, schedule: Q04DX003 (ip), vehicle: other): 94 % of control
- T/C (endpoint: mean survival time, dose: 200.0 mg/kg/injection, schedule: Q04DX003 (ip), vehicle: other): 93 % of control

SMILES: COc1cc(N)ccc1C(=O)O
- T/C [1]: 94 % of control
- T/C [2]: 96 % of control
- T/C [3]: 97 % of control

SMILES: COCCC(=O)COC
- T/C (endpoint: mean survival time, dose: 50.0 mg/kg/injection, schedule: Q01DX001 (ip), vehicle: saline): 97 % of control
- T/C (endpoint: mean survival time, dose: 100.0 mg/kg/injection, schedule: Q01DX001 (ip), vehicle: saline): 95 % of control
- T/C (endpoint: mean survival time, dose: 200.0 mg/kg/injection, schedule: Q01DX001 (ip), vehicle: saline): 91 % of control
- T/C (endpoint: mean survival time, dose: 400.0 mg/kg/injection, schedule: Q01DX001 (ip), vehicle: saline): 95 % of control

SMILES: O=NSC(c1ccccc1)(c1ccccc1)c1ccccc1
- T/C (endpoint: mean survival time, dose: 50.0 mg/kg/injection, schedule: Q01DX009 (ip), vehicle: Klucel (hydroxypropylcellulose) (HPC)): 94 % of control
- T/C [4]: 89 % of control
- T/C [5]: 93 % of control

SMILES: O=C(OCc1ccccc1)c1cc(OCc2ccccc2)ccc1OCc1ccccc1
- T/C [4]: 89 % of control
- T/C (endpoint: mean survival time, dose: 100.0 mg/kg/injection, schedule: Q04DX003 (ip), vehicle: Klucel (hydroxypropylcellulose) (HPC)): 93 % of control
- T/C [5]: 101 % of control
- T/C (endpoint: mean survival time, dose: 200.0 mg/kg/injection, schedule: Q04DX003 (ip), vehicle: Klucel (hydroxypropylcellulose) (HPC)): 95 % of control
- T/C (endpoint: mean survival time, dose: 400.0 mg/kg/injection, schedule: Q01DX009 (ip), vehicle: Klucel (hydroxypropylcellulose) (HPC)): 107 % of control
- T/C (endpoint: mean survival time, dose: 400.0 mg/kg/injection, schedule: Q04DX003 (ip), vehicle: Klucel (hydroxypropylcellulose) (HPC)): 98 % of control

SMILES: CCOC(=O)CNCC(O)C(Cl)(Cl)Cl (configuration not stated)
- T/C (endpoint: mean survival time, dose: 100.0 mg/kg/injection, schedule: Q01DX009 (ip), vehicle: saline with Tween-80): 92 % of control
- T/C (endpoint: mean survival time, dose: 200.0 mg/kg/injection, schedule: Q01DX009 (ip), vehicle: saline with Tween-80): 86 % of control

SMILES: CC(C)(C)CC(CC(C)(C)C)C(=O)O
- T/C (endpoint: mean survival time, dose: 106.0 mg/kg/injection, schedule: Q01DX Z (ip), vehicle: other): 94 % of control
- T/C (endpoint: mean survival time, dose: 160.0 mg/kg/injection, schedule: Q01DX Z (ip), vehicle: other): 102 % of control
- T/C (endpoint: mean survival time, dose: 240.0 mg/kg/injection, schedule: Q01DX Z (ip), vehicle: other): 96 % of control and 103 % of control
- T/C (endpoint: mean survival time, dose: 360.0 mg/kg/injection, schedule: Q01DX Z (ip), vehicle: other): 101 % of control and 89 % of control
- T/C (endpoint: mean survival time, dose: 540.0 mg/kg/injection, schedule: Q01DX Z (ip), vehicle: other): 86 % of control

SMILES: CC1CC(C)(O)CC(C(O)CC2CC(=O)NC(=O)C2)C1=O (configuration not stated)
- T/C (endpoint: mean survival time, dose: 0.02 mg/kg/injection, schedule: Q03HX024 (ip), vehicle: saline): 109 % of control
- T/C (endpoint: mean survival time, dose: 0.03 mg/kg/injection, schedule: Q01DX Z (ip), vehicle: other): 118 % of control
- T/C (endpoint: mean survival time, dose: 0.04 mg/kg/injection, schedule: Q03HX016 (ip), vehicle: saline): 111 % of control
- T/C (endpoint: mean survival time, dose: 0.04 mg/kg/injection, schedule: Q03HX024 (ip), vehicle: saline): 117 % of control
- T/C (endpoint: mean survival time, dose: 0.08 mg/kg/injection, schedule: Q01DX005 (ip), vehicle: saline): 120 % of control
- T/C (endpoint: mean survival time, dose: 0.08 mg/kg/injection, schedule: Q01DX005 (iv), vehicle: saline): 108 % of control
- T/C (endpoint: mean survival time, dose: 0.08 mg/kg/injection, schedule: Q01DX009 (ip), vehicle: saline): 155 % of control
- T/C (endpoint: mean survival time, dose: 0.08 mg/kg/injection, schedule: Q01DX Z (ip), vehicle: methylcellulose (MC)): 123 % of control
- T/C (endpoint: mean survival time, dose: 0.08 mg/kg/injection, schedule: Q01DX Z (ip), vehicle: other): 119 % of control
- T/C (endpoint: mean survival time, dose: 0.08 mg/kg/injection, schedule: Q03HX016 (ip), vehicle: saline): 117 % of control
- T/C (endpoint: mean survival time, dose: 0.15 mg/kg/injection, schedule: Q01DX005 (iv), vehicle: saline): 115 % of control
- T/C (endpoint: mean survival time, dose: 0.15 mg/kg/injection, schedule: Q01DX009 (ip), vehicle: saline): 87 % of control
- T/C (endpoint: mean survival time, dose: 0.15 mg/kg/injection, schedule: Q01DX009 (oral), vehicle: saline): 109 % of control
- T/C (endpoint: mean survival time, dose: 0.15 mg/kg/injection, schedule: Q03HX024 (ip), vehicle: saline): 155 % of control
- T/C (endpoint: mean survival time, dose: 0.3 mg/kg/injection, schedule: Q01DX001 (iv), vehicle: saline): 105 % of control
- T/C (endpoint: mean survival time, dose: 0.3 mg/kg/injection, schedule: Q01DX009 (oral), vehicle: saline): 117 % of control
- T/C (endpoint: mean survival time, dose: 0.3 mg/kg/injection, schedule: Q01DX Z (ip), vehicle: methylcellulose (MC)): 155 % of control
- T/C (endpoint: mean survival time, dose: 0.3 mg/kg/injection, schedule: Q01DX Z (ip), vehicle: other): 157 % of control
- T/C (endpoint: mean survival time, dose: 0.3 mg/kg/injection, schedule: Q03HX016 (ip), vehicle: saline): 161 % of control
- T/C (endpoint: mean survival time, dose: 0.3 mg/kg/injection, schedule: Q03HX024 (ip), vehicle: saline): 157 % of control
- T/C (endpoint: mean survival time, dose: 0.3 mg/kg/injection, schedule: Q11DX001 (ip), vehicle: saline): 105 % of control
- T/C (endpoint: mean survival time, dose: 0.3 mg/kg/injection, schedule: Q14DX008 (ip), vehicle: saline): 112 % of control
- T/C (endpoint: mean survival time, dose: 0.6 mg/kg/injection, schedule: Q01DX001 (iv), vehicle: saline): 110 % of control
- T/C (endpoint: mean survival time, dose: 0.6 mg/kg/injection, schedule: Q01DX005 (iv), vehicle: saline): 112 % of control
- T/C (endpoint: mean survival time, dose: 0.6 mg/kg/injection, schedule: Q01DX009 (oral), vehicle: saline): 95 % of control
- T/C (endpoint: mean survival time, dose: 0.6 mg/kg/injection, schedule: Q01DX Z (ip), vehicle: methylcellulose (MC)): 92 % of control
- T/C (endpoint: mean survival time, dose: 0.6 mg/kg/injection, schedule: Q08DX002 (ip), vehicle: saline): 124 % of control
- T/C (endpoint: mean survival time, dose: 0.6 mg/kg/injection, schedule: Q11DX001 (ip), vehicle: saline): 114 % of control
- T/C (endpoint: mean survival time, dose: 0.6 mg/kg/injection, schedule: Q14DX008 (ip), vehicle: saline): 116 % of control
- T/C (endpoint: mean survival time, dose: 0.9 mg/kg/injection, schedule: Q01DX Z (ip), vehicle: other): 95 % of control
- T/C (endpoint: mean survival time, dose: 1.2 mg/kg/injection, schedule: Q01DX001 (iv), vehicle: saline): 121 % of control
- T/C (endpoint: mean survival time, dose: 1.2 mg/kg/injection, schedule: Q01DX005 (ip), vehicle: saline): 88 % of control
- T/C (endpoint: mean survival time, dose: 1.2 mg/kg/injection, schedule: Q11DX001 (ip), vehicle: saline): 113 % of control
- T/C (endpoint: mean survival time, dose: 1.2 mg/kg/injection, schedule: Q11DX001 (oral), vehicle: saline): 109 % of control
- T/C (endpoint: mean survival time, dose: 1.2 mg/kg/injection, schedule: Q14DX008 (ip), vehicle: saline): 113 % of control
- T/C (endpoint: mean survival time, dose: 1.35 mg/kg/injection, schedule: Q01DX Z (ip), vehicle: other): 87 % of control
- T/C (endpoint: mean survival time, dose: 2.4 mg/kg/injection, schedule: Q01DX001 (iv), vehicle: saline): 118 % of control
- T/C (endpoint: mean survival time, dose: 2.4 mg/kg/injection, schedule: Q04DX003 (ip), vehicle: saline): 154 % of control
- T/C (endpoint: mean survival time, dose: 2.4 mg/kg/injection, schedule: Q11DX001 (ip), vehicle: saline): 112 % of control
- T/C (endpoint: mean survival time, dose: 2.4 mg/kg/injection, schedule: Q11DX001 (oral), vehicle: saline): 101 % of control
- T/C (endpoint: mean survival time, dose: 2.4 mg/kg/injection, schedule: Q14DX008 (ip), vehicle: saline): 108 % of control
- T/C (endpoint: mean survival time, dose: 4.8 mg/kg/injection, schedule: Q11DX001 (ip), vehicle: saline): 108 % of control
- T/C (endpoint: mean survival time, dose: 10.0 micrograms/kg/injection, schedule: Q01DX Z (ip), vehicle: other): 100 % of control
- T/C (endpoint: mean survival time, dose: 20.0 micrograms/kg/injection, schedule: Q01DX Z (ip), vehicle: other): 102 % of control
- T/C (endpoint: mean survival time, dose: 40.0 micrograms/kg/injection, schedule: Q01DX Z (ip), vehicle: other): 110 % of control
- T/C (endpoint: mean survival time, dose: 80.0 micrograms/kg/injection, schedule: Q01DX Z (ip), vehicle: other): 115 % of control
- T/C (endpoint: median survival time, dose: 2.0 mg/kg/injection, schedule: Q04DX003 (ip), vehicle: saline): 154 % of control

SMILES: O=C(Nc1ccccc1F)N1CCCCC1
- T/C (endpoint: mean survival time, dose: 100.0 mg/kg/injection, schedule: Q01DX009 (ip), vehicle: gum acacia): 97 % of control
- T/C (endpoint: mean survival time, dose: 200.0 mg/kg/injection, schedule: Q01DX009 (ip), vehicle: gum acacia): 97 % of control
- T/C (endpoint: mean survival time, dose: 400.0 mg/kg/injection, schedule: Q01DX009 (ip), vehicle: gum acacia): 100 % of control

SMILES: C#CCOC(=O)NCC
- T/C [1]: 101 % of control
- T/C [2]: 102 % of control
- T/C [3]: 96 % of control
